Assay results as given in ChEMBL document CHEMBL2203004, “New diterpene furanoids from the Antarctic lichen Huea sp” (Bioorg Med Chem Lett, 2012).
Active and inactive are the calls of the source. The rule behind the calls is not given here.

How the values were obtained:
[1] = biological target: T1, Tyrosine-protein phosphatase non-receptor type 1 (Homo sapiens, UniProt P18031); experiment: (§1) Inhibition of human recombinant PTP1B using p-nitrophenyl phosphate as substrate after 30 mins by spectrophotometric analysis
T1 sequence (P18031 whole entry): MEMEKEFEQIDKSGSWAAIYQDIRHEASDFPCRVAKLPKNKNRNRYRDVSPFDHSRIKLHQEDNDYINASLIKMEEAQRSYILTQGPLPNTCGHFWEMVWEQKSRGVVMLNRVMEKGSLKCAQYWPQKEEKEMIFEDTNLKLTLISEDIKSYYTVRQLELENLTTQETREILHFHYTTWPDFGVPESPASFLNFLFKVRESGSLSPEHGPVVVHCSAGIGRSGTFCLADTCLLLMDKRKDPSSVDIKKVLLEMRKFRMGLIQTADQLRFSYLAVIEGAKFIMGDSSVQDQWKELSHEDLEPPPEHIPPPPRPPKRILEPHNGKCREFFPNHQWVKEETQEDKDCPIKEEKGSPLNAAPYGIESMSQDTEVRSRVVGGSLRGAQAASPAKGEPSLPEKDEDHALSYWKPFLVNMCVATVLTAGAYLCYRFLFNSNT

[2] = biological target: T2, Tyrosine-protein phosphatase non-receptor type 1 (Homo sapiens) (UniProt P18031); experiment: as §1
T2 sequence (whole entry): T1 sequence (P18031 whole entry)

[3] = biological target: T2, Tyrosine-protein phosphatase non-receptor type 1 (Homo sapiens); experiment: Noncompetitive inhibition of human recombinant PTP1B using p-nitrophenyl phosphate as substrate at 5.57 to 14.87 uM after 30 mins by Lineweaver-Burk plot analysis

IC50 [1]: 13.9 µM | inhibition [2]: Dose-dependent effect | inhibition [3]: Active
SMILES: C=CC(C)(O)C/C=C/[C@@]1(C)CC[C@@H](C(C)(O)CC(=O)C=C(C)C)O1 (relative stereo)
